Results published in patent publication US5969094A, “Anti-paramyxovirus screening method and vaccine” (Emory University, priority 1996, dated 1999).

Experiments:
PI2 virus [1] = assay: Inhibition of plaque formation on Vero cells (viral entry), PI2; type: cell-based, parainfluenza virus type 2
Procedure: (§1) Inhibition of plaque formation. A series of 2-fold dilutions of F peptides together with appropriately diluted PI2 or PI3 virus were added to monolayers of Vero cells. After 1 h incubation at 37° C., the inoculum was removed and overlaid with 2% white agar mixed at 1:1 ratio with 2XDMEM containing 2% FBS. Three days after overlying, red agar mixed at a 1:1 ratio with 2XDMEM containing 2% FBS was overlaid to stain the cells. Plaque numbers were counted one day after neutral red staining and recorded. The Reed-Muench method of estimating 50% endpoint [Welkos, S. et al., (1994) Methods in Enzymology. 235:29-39] was used to calculate the F peptide 50% effective concentration (EC50) value.
(§2) F peptides inhibit viral spread. To determine whether the F peptide interferes with the viral entry process, a plaque assay was performed by inoculating cells with virus and peptide together at 37° C. for 1 h, and then overlaying with agar without the addition of peptide. At 10^4 dilution of the PI2 virus stock, 80 μM of the 2F1B34 peptide (SEQ ID NO:21) caused an 80% reduction in number of plaques. Similarly, at 10^5 dilution of the PI3 virus stock, 100 μM of the 3F1B35 peptide (SEQ ID NO:23) caused a 70% reduction in number of plaques. Furthermore, the reduction in the number of viral plaques was correlated with increasing concentration of peptide incubated with the virus. […]

PI2F + PI2HN = molecular target: T1, PI2F + PI2HN (Human parainfluenza 2 virus, UniProt P25467); type: cell-based, parainfluenza virus type 2; conditions: 18 hr
T1 construct: expressed in transfected cells; host or cells: HeLa-T4 cells infected with vTF7.3
T1 sequence (P25467 107-551 limits assumed): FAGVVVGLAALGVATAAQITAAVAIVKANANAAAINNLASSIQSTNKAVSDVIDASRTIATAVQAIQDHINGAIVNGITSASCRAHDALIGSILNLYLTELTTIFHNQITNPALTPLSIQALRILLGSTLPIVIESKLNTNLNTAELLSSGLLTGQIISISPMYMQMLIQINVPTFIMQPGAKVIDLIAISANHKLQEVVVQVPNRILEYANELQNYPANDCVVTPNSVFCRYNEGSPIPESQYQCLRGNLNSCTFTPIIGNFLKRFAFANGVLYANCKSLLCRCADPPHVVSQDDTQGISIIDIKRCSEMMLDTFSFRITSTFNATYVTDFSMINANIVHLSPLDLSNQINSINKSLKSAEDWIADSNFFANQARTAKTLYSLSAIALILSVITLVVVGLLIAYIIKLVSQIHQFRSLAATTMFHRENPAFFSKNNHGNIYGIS
T1 sequence (P25467 24-106 partner limits assumed): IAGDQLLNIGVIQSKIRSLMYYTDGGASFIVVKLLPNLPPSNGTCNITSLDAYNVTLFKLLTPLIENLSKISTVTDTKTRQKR

PI2 virus [2] = assay: Plaque size reduction on Vero cells, peptide in agar overlay; type: cell-based, parainfluenza virus type 2; conditions: 80 μM peptide in agar overlay after 1 h absorption; control cells 3 mm; three days
Procedure: FIGS. 11A and 11B Plaque size reduction by F peptides. Plaque assay was performed on the Vero cells using PI2 virus. After 1 h absorption at 37° C., inoculum was removed and cells overlaid with a 1:1 mixture of 2% white agar with 2XDMEM containing 2% FBS (A) without addition of F peptide, or (B) with addition of 80 μM of 2F1B34 in the overlay agar. Three days after overlaying, the agar was removed and the monolayer of cells was stained with crystal violet.
As another indication of a reduction in spread of virus under condition of multiple cycle replication, the effect of the peptides on plaque size was determined.

PI2 virus [3] = assay: Inhibition of virus production (released virus titer) in HeLa-T4 cells, PI2; type: cell-based, parainfluenza virus type 2; conditions: 48 h post infection; m.o.i. 0.1; 80 μM peptide (FIG. 10); culture supernatant
PI2 virus [4] = assay: Surface immunofluorescence of PI2 antigen on infected HeLa-T4 cells (viral spread); type: cell-based, parainfluenza virus type 2; conditions: low m.o.i. infection, incubated with peptide
Procedure: Surface immunofluorescence. Indirect immunofluorescence was performed as described by Paterson et al. 1989. In general, HeLa-T4 cells were grown on glass coverslips in 24-well plates and infected with wild-type PI2 virus as described above. At indicated times post infection, cells were washed with ice-cold PBS three times before being fixed with 1% paraformaldehyde in PBS. Rabbit anti-PI2 antibody was added onto cell monolayers, and cells were then incubated at 4° C. for 30 min. Cells were washed with ice-cold PBS three times, and then goat anti-rabbit immunoglobulin G fluorescein-conjugated antibody (Southern Biotechnology Associates, Inc., Birmingham, Ala.) was added and was then incubated at 4° C. for 30 min. Cell surface fluorescence was examined by fluorescence microscopy with a Nikon Optiphot microscope.
To further confirm that the F peptides inhibit viral spread, we examined the distribution of infected cells by surface immunofluorescence at intervals post low m.o.i. infection in the presence or absence of F peptides.

PI2 virus [5] = type: cell-based, parainfluenza virus type 2
PI3 virus [6] = assay: Inhibition of plaque formation on Vero cells (viral entry), PI3; type: cell-based, human parainfluenza type 3 virus; conditions: 100 μM peptide with virus 1 h at 37° C.; 10^5 dilution of the PI3 virus stock; overlay without peptide
Procedure: as §1, §2

PI3 virus [7] = type: cell-based, human parainfluenza type 3 virus
PI3F + PI3HN = PI3F + PI3HN (Human parainfluenza 3 virus, UniProt P06828)
HIV-1 = conditions: Wild et al. 1994; cited from earlier work
[8] = incubated with peptide, concentration not given

PI3F + PI3HN, sequence (P06828 110-539): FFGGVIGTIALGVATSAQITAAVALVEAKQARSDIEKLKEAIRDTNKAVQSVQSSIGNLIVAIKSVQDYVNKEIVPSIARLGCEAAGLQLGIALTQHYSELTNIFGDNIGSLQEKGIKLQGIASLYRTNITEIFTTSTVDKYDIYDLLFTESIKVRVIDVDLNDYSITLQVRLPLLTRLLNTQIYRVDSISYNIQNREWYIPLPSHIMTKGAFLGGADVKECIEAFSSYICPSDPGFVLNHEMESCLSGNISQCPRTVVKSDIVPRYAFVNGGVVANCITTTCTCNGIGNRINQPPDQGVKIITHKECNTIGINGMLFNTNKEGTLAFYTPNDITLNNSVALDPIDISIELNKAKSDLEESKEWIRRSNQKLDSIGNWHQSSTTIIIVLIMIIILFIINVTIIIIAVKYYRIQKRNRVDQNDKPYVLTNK
PI3F + PI3HN, sequence (P06828 19-109): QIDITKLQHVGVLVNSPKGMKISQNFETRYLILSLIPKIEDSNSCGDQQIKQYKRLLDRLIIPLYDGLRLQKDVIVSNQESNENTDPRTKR

2F1B34: PI2F peptide from the beginning of the transmembrane domain to include the entire heptad repeat B region (DLSNQINSINKSLKSAEDWIADSNFFANQARTAK)
reduction in number of plaques, PI2 (PI2 virus [1]; 80 μM peptide with virus 1 h at 37° C., 10^4 dilution of the PI2 virus stock, overlay without peptide): 80%
EC50 (PI2 virus [1]; Vero cells, Reed-Muench method, read-out: 50% effective concentration (EC50), plaque number, PI2): 53.8 µM
inhibition of cell fusion induced by coexpression of PI2 F plus PI2 HN (PI2F + PI2HN): completely inhibit
plaque size (diameter) (PI2 virus [2]): 1.5 mm
decrease in the viral titer, PI2 (PI2 virus [3]): 15 fold
cells expressing PI2 antigen on the surface at 18 h (PI2 virus [4]): only few cells were expressing PI2 antigen
numbers of cells showing PI2 antigen expression on the surface at 24 h and 48 hpi (PI2 virus [4]): no increase in numbers of cells showing antigen expression
syncytium formation / inhibition of cell fusion in PI2 infected HeLa-T4 cells (in words) (PI2 virus [5]; [8]): no syncytia were seen
inhibition of PI2 virus-induced cell fusion (PI2 virus [5]; peptide concentration as low as 80 μM, 24 h post infection, m.o.i. 0.1): completely inhibited

3F1B35: 35 a.a. PI3F peptide from the beginning of the transmembrane domain to include the entire heptad repeat B (ELNKAKSDLEESKEWIRRSNQKLDSIGNWHQSSTT)
reduction in number of plaques, PI3 (PI3 virus [6]): 70%
syncytium formation / inhibition of cell fusion in PI3 infected HeLa-T4 cells (in words) (PI3 virus [7]; [8]): no syncytia were seen
inhibition of PI3 virus-induced cell fusion (PI3 virus [7]; peptide 100 μM, 24 h post infection): completely inhibited
inhibition of fusion by PI3 F plus PI3 HN (PI3F + PI3HN): can inhibit

enfuvirtide
potency against cell-cell fusion versus infection by cell-free virus (HIV-1): more potent inhibitor of cell-cell fusion than of infection by cell-free virus
